Source: ChEMBL document CHEMBL1201862, “PubChem BioAssay data set” (2004)
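Cells were grown in 96-well plates and exposed to each compound for 48 hours at five concentrations; endpoints were interpolated linearly between bracketing concentrations, or set to the highest concentration if not reached. At the GI50, growth is halved.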 Active and inactive are the calls of the source. No stated cut-off is given here; in the data, active = GI50 up to about 1.1 µM and inactive = higher.

Legend:
Assay in all cases: NCI-60 cell line screen, 48 h
HOP-18 = test system: HOP-18
KM-20L2 = test system: KM-20L2
SNB-78 = test system: SNB-78
DMS-273 = test system: DMS-273
RXF 631 = test system: RXF 631
DLD-1 = test system: DLD-1
LXFL 529 = test system: LXFL 529
M19-MEL = test system: M19-MEL
XF498 = test system: XF498

Measured: GI50

COc1cc(NCC(C#N)C#N)ccc1/N=N/c1ccc(Cl)cc1
inactive: HOP-18 21 µM | KM-20L2 15.2 µM | SNB-78 36.7 µM | DMS-273 21.5 µM | RXF 631 26.3 µM | DLD-1 29.4 µM | LXFL 529 18.3 µM | M19-MEL 19.3 µM

Nc1ccc(O)c2c1C(=O)c1c(N)ccc(O)c1C2=O
inactive: SNB-78 > 100 µM | DMS-273 > 100 µM | XF498 > 100 µM | DLD-1 > 100 µM | LXFL 529 > 100 µM | M19-MEL > 100 µM

COC(=O)C1CC(C(=O)OC)c2nc3cc(C)c(C)cc3nc21 (configuration not stated)
inactive: HOP-18 41.7 µM | KM-20L2 > 100 µM | SNB-78 > 100 µM | DMS-273 > 100 µM | XF498 > 100 µM | RXF 631 > 100 µM | DLD-1 > 100 µM | LXFL 529 > 100 µM | M19-MEL > 100 µM

COC(=O)C1=CCON(c2ccccc2)C1c1ccccc1 (configuration not stated)
inactive: HOP-18 > 100 µM | KM-20L2 69.8 µM | DMS-273 56.5 µM | XF498 52 µM | DLD-1 39.1 µM | LXFL 529 34.7 µM | M19-MEL 62.8 µM

COc1cc2nc(-c3cccc(N(C)C)c3)cc(O)c2cc1OC
inactive: HOP-18 3.27 µM | KM-20L2 2.11 µM | SNB-78 5.83 µM | DMS-273 3.85 µM | XF498 6.32 µM | DLD-1 4.5 µM | LXFL 529 5.22 µM | M19-MEL 5.55 µM

C/C=C/C=C/C=C/C=C/C(=O)O
inactive: HOP-18 > 100 µM | KM-20L2 > 100 µM | SNB-78 > 100 µM | DMS-273 > 100 µM | RXF 631 > 100 µM | DLD-1 > 100 µM | LXFL 529 > 100 µM

CCOc1ccccc1/N=N/c1ccc2oc(=O)c(C(C)=O)cc2c1
inactive: KM-20L2 > 100 µM | SNB-78 24.4 µM | DMS-273 > 100 µM | XF498 30.1 µM | DLD-1 > 100 µM | LXFL 529 > 100 µM | M19-MEL > 100 µM

Cc1cc(Cl)ccc1NC1=NC(=O)C(CC(=O)Nc2ccc(Cl)cc2Cl)S1 (configuration not stated)
inactive: KM-20L2 > 100 µM | SNB-78 > 100 µM | DMS-273 > 100 µM | XF498 38.1 µM | RXF 631 > 100 µM | DLD-1 > 100 µM | LXFL 529 > 100 µM | M19-MEL > 100 µM

O=C(/C=C/c1c(O)ccc2ccccc12)c1cccc(O)c1
inactive: HOP-18 23 µM | KM-20L2 > 100 µM | SNB-78 > 100 µM | DMS-273 > 63.5 µM | XF498 > 100 µM | DLD-1 > 100 µM | LXFL 529 > 83.6 µM | M19-MEL 17.5 µM

CC(C)C1CNC2N1C(=O)C2(C)OCc1ccccc1 (configuration not stated)
inactive: KM-20L2 > 100 µM | DMS-273 > 100 µM | DLD-1 > 100 µM | LXFL 529 > 100 µM | M19-MEL > 100 µM

CC1CC(=O)C(CC(=O)O)[C@H]1C(C(=O)C(=O)Nc1cc(Cl)ccc1Cl)[N+](=O)[O-] (some centres not stated)
inactive: HOP-18 > 100 µM | KM-20L2 > 100 µM | XF498 > 100 µM | DLD-1 > 100 µM | M19-MEL > 100 µM

O=C1CCC2(c3ccccc3)OCC([C@@H](O)c3ccccc3)N12 (some centres not stated)
inactive: HOP-18 > 100 µM | KM-20L2 > 100 µM | SNB-78 > 100 µM | DMS-273 > 100 µM | XF498 > 100 µM | DLD-1 > 100 µM | M19-MEL > 100 µM

O=C1C2=C(c3ccccc31)C(c1ccccc1)NC(S)=N2 (configuration not stated)
inactive: KM-20L2 42 µM | DMS-273 26.9 µM | XF498 56 µM | RXF 631 43.2 µM | DLD-1 52.6 µM | LXFL 529 26.2 µM | M19-MEL 67.9 µM

C[N+](C)(C)CC1CCCC/C1=N\O (configuration not stated)
inactive: HOP-18 > 100 µM | KM-20L2 > 100 µM | SNB-78 > 100 µM | DMS-273 > 100 µM | RXF 631 > 100 µM | DLD-1 > 100 µM | LXFL 529 > 100 µM

O=C1C2=C(c3ccccc31)C(c1ccc([N+](=O)[O-])cc1)NC(S)=N2 (configuration not stated)
inactive: KM-20L2 > 100 µM | DMS-273 59.4 µM | XF498 31.5 µM | RXF 631 > 100 µM | DLD-1 69 µM | LXFL 529 41 µM | M19-MEL 78.9 µM

Nc1ccc2c(c1)C(=O)N(OS(=O)(=O)c1ccccc1)C2=O
inactive: HOP-18 > 100 µM | KM-20L2 > 100 µM | SNB-78 > 100 µM | DMS-273 > 100 µM | XF498 > 100 µM | RXF 631 > 100 µM | DLD-1 52.4 µM | LXFL 529 82 µM | M19-MEL > 100 µM

Cc1cc(NCCCCCCCNc2cc(C)nc3cc([N+](=O)[O-])ccc23)c2ccc([N+](=O)[O-])cc2n1
inactive: HOP-18 17.3 µM | KM-20L2 10.8 µM | SNB-78 15.9 µM | DMS-273 4.29 µM | XF498 13.7 µM | RXF 631 7.93 µM | DLD-1 1.82 µM | LXFL 529 1.56 µM | M19-MEL 12.4 µM

O=[N+]([O-])c1cc(-c2nnc(S)[nH]2)ccc1O
inactive: KM-20L2 > 100 µM | SNB-78 > 100 µM | DMS-273 67.6 µM | RXF 631 > 100 µM | DLD-1 > 100 µM | LXFL 529 > 100 µM | M19-MEL 86.3 µM

N#CNc1nc(C(=O)Nc2ccc(Cl)cc2)cc(-c2ccccc2)n1
inactive: HOP-18 > 100 µM | KM-20L2 > 100 µM | SNB-78 > 100 µM | DMS-273 > 100 µM | XF498 > 100 µM | RXF 631 > 100 µM | DLD-1 > 100 µM | LXFL 529 > 100 µM | M19-MEL > 100 µM

CN(C)CCCNc1ccnc2cccc([N+](=O)[O-])c12
inactive: KM-20L2 11.5 µM | SNB-78 12.9 µM

O=c1cc(-c2ccccc2)[nH]c2cc(Cl)cc(Cl)c12
inactive: HOP-18 20.8 µM | DMS-273 12.3 µM | DLD-1 > 100 µM | LXFL 529 67.8 µM | M19-MEL 35.5 µM

O=C(O)C1OC(Oc2cc(O)c3c(=O)cc(-c4ccc(O)cc4)oc3c2)C(O)C(O)C1O (configuration not stated)
inactive: KM-20L2 > 100 µM | SNB-78 > 100 µM | DMS-273 > 100 µM | XF498 33.6 µM | DLD-1 > 100 µM | LXFL 529 > 100 µM | M19-MEL > 100 µM

Clc1ccc2[nH]c(CCSCCc3nc4ccc(Cl)cc4[nH]3)nc2c1
inactive: HOP-18 22.3 µM | DMS-273 13.4 µM | XF498 14.2 µM | RXF 631 6.89 µM | DLD-1 15.4 µM | LXFL 529 6.18 µM | M19-MEL 14.4 µM

COc1ccc2nc(-c3cccs3)cc(C(O)CN3CCSCC3)c2c1 (configuration not stated)
inactive: HOP-18 19.8 µM | KM-20L2 21.6 µM | DMS-273 19.5 µM | XF498 16.3 µM | DLD-1 23.6 µM | LXFL 529 12.6 µM | M19-MEL 22.8 µM

COc1cc(O)c2c(c1O)C(=O)c1cc(C)ncc1C2=O
inactive: HOP-18 > 50 µM | KM-20L2 17.2 µM | SNB-78 37.8 µM | XF498 20.6 µM | DLD-1 16 µM | LXFL 529 18.6 µM | M19-MEL 7.91 µM

O=C1c2c(nc3ccccc3c2-c2ccccc2)CN1Nc1ccccn1
inactive: SNB-78 11.5 µM | DMS-273 > 89.9 µM | XF498 > 100 µM | RXF 631 15.8 µM | DLD-1 > 100 µM | LXFL 529 51.9 µM | M19-MEL > 100 µM
